A word on the IC50: it is the concentration needed to halve the response being measured.

The values below come from patent US20030236294A1, “Compounds and methods for inducing apoptosis in proliferating cells” (priority 2002, published 2003).

One experiment relates to PC-3 cells. Description: Apoptosis induction in PC-3 cells (T1/2, time for 50% apoptotic death; cell viability / Cell Death Detection ELISA). The conditions noted are these: for change in potency in apoptosis induction on replacement of —SO2NH2 with —CONH2: carboxamide versus sulfonamide counterpart, FIG. 10A; for T½ (h) 50 μM: time required for eliciting 50% apoptotic death; for classification as fast-acting or slow-acting apoptosis inducer: prostate cancer cells, FIG. 8. (An ELISA detects its analyte on a solid surface through an enzyme-linked reagent.)

For another experiment, the system named is PGE2 production. Description: Prostaglandin E2 (PGE2) immunoassay. The format is cell-based, human. Particulars: 50 μM; 1F2, 3D9, 7D9 cells and parental PC-3 cells; data not shown. As for the experimental part: Culture medium was changed, and 24 hours later conditioned medium was collected to assay PGE2. Conditioned medium was centrifuged to remove particulate material, and then cells were collected by scraping to determine the protein concentration. PGE2 was assayed in 100 μL medium in triplicate according to the manufacturer's instruction (R&D Systems, Inc.; Minneapolis, Minn.). PGE2 data were normalized to protein content.

The next experiment has as its target T1, COX-2 (Homo sapiens, UniProt P35354).
T1 sequence (P35354 18-604): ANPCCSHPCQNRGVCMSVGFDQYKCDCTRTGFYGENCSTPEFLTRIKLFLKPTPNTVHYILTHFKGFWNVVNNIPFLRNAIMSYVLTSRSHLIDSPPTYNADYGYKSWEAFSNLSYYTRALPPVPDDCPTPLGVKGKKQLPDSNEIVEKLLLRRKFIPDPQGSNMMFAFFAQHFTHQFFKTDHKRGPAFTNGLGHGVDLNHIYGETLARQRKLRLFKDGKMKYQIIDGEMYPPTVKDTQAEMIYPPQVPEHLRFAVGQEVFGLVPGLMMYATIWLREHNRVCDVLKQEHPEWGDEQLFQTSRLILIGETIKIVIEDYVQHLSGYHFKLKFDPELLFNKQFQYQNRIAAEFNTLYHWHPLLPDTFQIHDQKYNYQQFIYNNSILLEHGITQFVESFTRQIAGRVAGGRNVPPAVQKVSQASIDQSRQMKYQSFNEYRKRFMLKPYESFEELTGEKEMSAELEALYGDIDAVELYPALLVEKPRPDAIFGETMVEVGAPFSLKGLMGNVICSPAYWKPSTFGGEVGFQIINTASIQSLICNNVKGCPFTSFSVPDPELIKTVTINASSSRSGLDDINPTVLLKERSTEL
The conditions noted are these: Table 1; read-out: IC50 (μM), COX-2 inhibition; cited from earlier work.

The test system of the next experiment is LNCaP cells. Description: Apoptosis induction in LNCaP cells. Type of experiment: cell-based, human. Particulars: LNCaP (p53+/+), compared with PC-3; data not shown.
In the next experiment the test system is DU-145 cells. The experiment can be described thus: Apoptosis induction in DU-145 cells. The format is cell-based, human. The conditions noted are these: DU-145 (p53−/−), compared with PC-3; data not shown.
Experiment [1] concerns Akt and ERK2 phosphorylation in PC-3 cells. The experiment can be described thus: Western blot of Akt and ERK2 phosphorylation status. The format is cell-based, human. Here is the method:
Immunoblotting For western blot analysis, cells were washed in phosphate-buffered saline (PBS), resuspended in sodium dodecyl sulfate (SDS) gel-loading buffer consisting of 50 mM Tris-HCl, pH 6.8, 100 mM dithiothreitol, 2% SDS, 0.1% bromophenol blue, and 10% glycerol, sonicated with an ultrasonic sonicator for 5 seconds (Virsonic 300, 4.5 output), and boiled for 5 minutes. After a brief centrifugation, equivalent protein amounts (60-100 μg) from the soluble fractions were resolved in 10% SDS-polyacrylamide gels on a Minigel apparatus and transferred to a nitrocellulose membrane in a semidry transfer cell. The transblotted membrane was washed twice with Tris-buffered saline (TBS) containing 0.05% Tween 20 (TBST). After blocking with TBS containing 5% nonfat milk for 60 minutes, the membrane was incubated with the appropriate primary antibody (anti-COX-2, anti-Akt, anti-P-^473Ser Akt, anti-ERK, and anti-phospho-ERK antibodies diluted 1:1,000; anti-actin monoclonal antibody, diluted 1:5,000) in TBS-1% nonfat milk at 4° C. for 12 hours and washed twice with TBST. The membranes were probed with goat anti-rabbit IgG-horseradish peroxidase conjugates (diluted 1:5,000) for 1 hour at room temperature and washed twice with TBST. Bands were visualized by enhanced chemiluminescence.
Immunoblotting. […]
A general note: A western blot detects proteins with antibodies after separation by electrophoresis.

In the case of “4-[5-(2,5-Dichlorophenyl)-3-(trifluoromethyl)-1H-pyrazol-1-yl]benzene-carboxyamide [Compound 32b]”, in the experiment on PC-3 cells, the “change in potency in apoptosis induction on replacement of —SO2NH2 with —CONH2” value (“change in potency in apoptosis induction” below) was “no appreciable change”.

Turning to `Fc1ccc(F)cc1` [Compound 5b], the “T½ (h) 50 μM” value in the experiment with PC-3 cells (50 μM, Table 2) was over 100 h.

As to `CS(=O)(=O)c1ccc(C2=C(c3ccccc3)C(=O)OC2)cc1` [rofecoxib, reference compound], the PGE2 production entry with PGE2 production was “reduced to the same extent”. Further, the “classification as fast-acting or slow-acting apoptosis inducer” value in the experiment with PC-3 cells was “slow-acting apoptosis inducer”.

Consider `Cc1ccc(-c2cc(C(F)(F)F)nn2-c2ccc(S(N)(=O)=O)cc2)c(C)c1` [Example 9], for which, in the experiment on PC-3 cells (50 μM, Table 1), the “T½ (h) 50 μM” value is 2 h.

For “4-[5-(2,4-Dimethylphenyl)-3-(trifluoromethyl)-1H-pyrazol-1-yl]benzene-carboxyamide [Compound 37b]”, the “change in potency in apoptosis induction” value in the experiment on PC-3 cells is given as “no appreciable change”.

For `Cc1ccc(C)c(-c2cc(C(F)(F)F)nn2-c2ccc(S(N)(=O)=O)cc2)c1` [Example 7], the IC50 on COX-2 was over 100 µM. Further, the “T½ (h) 50 μM” value in the experiment with PC-3 cells (50 μM, Table 1) is listed as 1 h.

Turning to `Cc1ccc(-c2cc(C(F)(F)F)nn2-c2ccc(S(N)(=O)=O)cc2)cc1` [celecoxib, 4-[5-(4-methylphenyl)-3-(trifluoromethyl)-1H-pyrazol-1-yl]benzenesulfonamide, reference compound], the “susceptibility to apoptosis induction” value in the experiment with LNCaP cells and in the experiment on DU-145 cells was “susceptibility identical to that of PC-3 cells” each time. In addition, the “phosphorylation of Akt and ERK2” value in experiment [1] (all four antisense COX-2 clones) was “decreased phosphorylation of Akt and ERK2”. In addition, the “time to 50% decrease in cell viability” value in the experiment on PC-3 cells (50 μM, PC-3 cells) was 2 h. Also, the “T½ (h) 50 μM” value with PC-3 cells (50 μM, Table 2) turned out to be 2 h.

With `CS(=O)(=O)Nc1ccc([N+](=O)[O-])cc1OC1CCCCC1` [NS398, reference compound], the PGE2 production result with PGE2 production is “reduced to the same extent”. In addition, the “classification as fast-acting or slow-acting apoptosis inducer” value with PC-3 cells is “slow-acting apoptosis inducer”.

For the compound `COc1ccc(OC)c(C)c1` [Compound 23b], the “T½ (h) 50 μM” value in the experiment with PC-3 cells (50 μM, Table 2) is reported as over 100 h.

As to `Cc1ccc(C)c(C)c1` [Compound 21b], in the experiment with PC-3 cells (50 μM, Table 2), the “T½ (h) 50 μM” value was 2 h.

In the case of `Cc1ccc(F)cc1F` [Compound 4b], in the experiment on PC-3 cells (50 μM, Table 2), the “T½ (h) 50 μM” value is reported as over 100 h.

As to `Cc1cccs1` [Compound 27b], in the experiment with PC-3 cells (50 μM, Table 2), the “T½ (h) 50 μM” value was over 100 h.

Consider `NS(=O)(=O)c1ccc(C2=C(c3ccc(Cl)c(Cl)c3)COC2=O)cc1` [Compound 49b, 3-(4-sulfamoylphenyl)-4-(3′,4′-dichlorophenyl)-2(5H)-furanone], for which the “T1/2 at 50 μM” value in the experiment with PC-3 cells (50 μM, PC-3 cells) was 15 h.

As to `NS(=O)(=O)c1ccc(-n2nc(C(F)(F)F)cc2-c2ccc(Cl)cc2)cc1` [1a, 4-[5-(4-Chlorophenyl)-3-(trifluoromethyl)-1H-pyrazol-1-yl]benzenesulfonamide], the “susceptibility to apoptosis induction” value in the experiment on LNCaP cells and in the experiment on DU-145 cells was “susceptibility identical to that of PC-3 cells” each time. The “phosphorylation status of Akt and ERK2” value in experiment [1] (PC-3 cells) was “concurrent dephosphorylation of Akt and ERK2”.

For `NS(=O)(=O)c1ccc(-n2nc(C(F)(F)F)cc2-c2ccc(Cl)cc2Cl)cc1` [Example 12], the “T½ (h) 50 μM” value in the experiment on PC-3 cells (50 μM, Table 1) worked out at 2 h.

For `Cc1ccc(-c2ccnn2-c2ccc(S(N)(=O)=O)cc2)cc1` [Compound 40b], in the experiment on PC-3 cells (PC-3 cells), the “activity in eliciting apoptosis in PC-3 cells (in words)” value is “loss of high potency”.

For `Cc1ccco1` [Compound 26b], in the experiment with PC-3 cells (50 μM, Table 2), the “T½ (h) 50 μM” value is recorded as over 100 h.

For `NS(=O)(=O)c1ccc(-n2nc(C(F)(F)F)cc2-c2cc(Cl)ccc2Cl)cc1` [Example 5], the “T½ (h) 50 μM” value with PC-3 cells (50 μM, Table 1) came to 3 h.

Turning to “4-[5-(3,4-Dichlorophenyl)-3-(trifluoromethyl)-1H-pyrazol-1-yl]benzene-carboxyamide [Compound 33b]”, the “change in potency in apoptosis induction” value in the experiment with PC-3 cells is listed as “no appreciable change”.

As for `CS(=O)(=O)c1ccc(C2=C(c3ccccc3)COC2=O)cc1` [Compound 47b, 3-(4′-methylsulfonylphenyl)-4-phenyl-2(5H)-furanone], in the experiment on PC-3 cells (PC-3 cells), the “activity in eliciting apoptosis in PC-3 cells (in words)” value is reported as “poor activity”.

As to `Cc1ccc(C)c(-c2cc(C(F)(F)F)nn2-c2ccc(S(N)(=O)=O)cc2)c1` [compound 7a, 4-[5-(2,5-dimethylphenyl)-3-(trifluoromethyl)-1H-pyrazol-1-yl]benzenesulfonamide], the “time to 50% decrease in cell viability” value in the experiment on PC-3 cells (50 μM, PC-3 cells) is on record as “within an hour”.

In the case of `COc1ccc(C)c(OC)c1` [Compound 22b], in the experiment with PC-3 cells (50 μM, Table 2), the “T½ (h) 50 μM” value was over 100 h.

Consider `NS(=O)(=O)c1ccc(-n2nc(C(F)(F)F)cc2-c2ccccc2Cl)cc1` [Example 13], for which, in the experiment on PC-3 cells (50 μM, Table 1), the “T½ (h) 50 μM” value is 4 h.

Take “4-[5-(2,4-Dichlorophenyl)-3-(trifluoromethyl)-1H-pyrazol-1-yl]benzene-carboxyamide [Compound 31b]”: in the experiment on PC-3 cells, the “change in potency in apoptosis induction” value is recorded as “no appreciable change”.

Regarding `Cc1ccc(C#N)cc1` [Compound 16b], in the experiment with PC-3 cells (50 μM, Table 2), the “T½ (h) 50 μM” value is listed as over 100 h.

In the case of `Cc1cc(Cl)sc1Cl` [Compound 29b], the “T½ (h) 50 μM” value in the experiment on PC-3 cells (50 μM, Table 2) was over 100 h.
